Like-named read-outs stand apart in the source and are kept apart here. Marks after values point to notes of the source that are not given here.
What was measured:
[1] = test system: carrageenan-induced mouse paw edema; experiment: Carrageenan-induced mouse paw edema; assay type: in vivo; conditions: for inhibition in vivo at 300 µmol/kg: Mus musculus, ip, 0.30 mmol/kg i.p., 3.5 h after carrageenan, mean of 6 animals, read-out: % Edema Reduction
Description: In vivo anti-inflammatory activity of the synthesized compounds was evaluated as mouse paw edema reduction. Paw edema was induced by subcutaneous injection of a 2% carrageenan suspension in the right paw of mice, the left serving as the control. The activity of the tested compounds (at 0.30 mmol/kg of body weight, i.p.), expressed as % reduction in paw edema 3.5 h after carrageenan injection, is shown in Table 2. […] Moreover, compounds 9 and 10 (antioxidant derivatives of mefenamic acid) caused a 1.5–2-fold improvement in edema reduction compared to that of the parent mefenamic acid (i).
For the in vivo anti-inflammatory activity, Wistar male rats or C57BL/6 mice were injected with 0.025 mL carrageenan (2% w/v solution in saline) i.d. into the right hind paw, with the left paw serving as the control. The test compounds (300 μmol/kg) were given, i.p., after the carrageenan injection, and 3.5 h later, the produced edema was estimated as the paw weight increase. Results are expressed as percentage of the reduction in paw edema and are the means for six animals (per compound).

[2] = Radical scavenging of DPPH; conditions: DPPH 200 μM, after incubation for 30 min
Description: The antioxidant activity of compounds 1–17 was evaluated via their ability to scavenge the free radical DPPH.
Compounds dissolved in absolute methanol at concentrations of 25–400 μM were added to an equal volume of a methanolic solution of DPPH (final concentration 200 μM) at room temperature (22 ± 2 °C). Absorbance (517 nm) was recorded at different time intervals for 1 h and results were expressed as IC50 (μM) for DPPH after incubation for 30 min [3].

[3] = test system: rat/mouse microsomal lipid peroxidation; experiment: Inhibition of microsomal lipid peroxidation; assay type: biochemical, C57BL/6 mice; conditions: after 45 min of incubation; read-out: IC50 against microsomal lipid peroxidation
Description: The antioxidant effect of the new compounds, as well as their parent compounds was also evaluated by the protection offered against rat/mouse microsomal lipid peroxidation.
The incubation mixture contained heat-inactivated (90 °C for 90 s) liver microsomal fraction from untreated C57BL/6 mice (corresponding to 2.5 mg of hepatic protein per milliliter or 4 mM fatty acid residues), ascorbic acid (0.2 mM) in Tris–HCl/KCl buffer (50 mM/ 150 mM, pH 7.4), and the studied compounds dissolved in dimethyl sulfoxide (in different concentrations). The reaction was initiated by the addition of a freshly prepared FeSO4 solution (10 μM), and the mixture was incubated at 37 °C for 45 min. Aliquots were taken at various time intervals and lipid peroxidation was assessed by the spectrophotometric (535 against 600 nm) determination of the produced 2-thiobarbituric acid reactive material.

[4] = molecular target: T1, soybean lipoxygenase (LOX-3) (Glycine max, UniProt P09186); experiment: Soybean lipoxygenase (LOX-3) inhibition; assay type: biochemical; conditions: for LOX-3 inhibitory activity (in words): parent antioxidants
T1 sequence (P09186 1-857): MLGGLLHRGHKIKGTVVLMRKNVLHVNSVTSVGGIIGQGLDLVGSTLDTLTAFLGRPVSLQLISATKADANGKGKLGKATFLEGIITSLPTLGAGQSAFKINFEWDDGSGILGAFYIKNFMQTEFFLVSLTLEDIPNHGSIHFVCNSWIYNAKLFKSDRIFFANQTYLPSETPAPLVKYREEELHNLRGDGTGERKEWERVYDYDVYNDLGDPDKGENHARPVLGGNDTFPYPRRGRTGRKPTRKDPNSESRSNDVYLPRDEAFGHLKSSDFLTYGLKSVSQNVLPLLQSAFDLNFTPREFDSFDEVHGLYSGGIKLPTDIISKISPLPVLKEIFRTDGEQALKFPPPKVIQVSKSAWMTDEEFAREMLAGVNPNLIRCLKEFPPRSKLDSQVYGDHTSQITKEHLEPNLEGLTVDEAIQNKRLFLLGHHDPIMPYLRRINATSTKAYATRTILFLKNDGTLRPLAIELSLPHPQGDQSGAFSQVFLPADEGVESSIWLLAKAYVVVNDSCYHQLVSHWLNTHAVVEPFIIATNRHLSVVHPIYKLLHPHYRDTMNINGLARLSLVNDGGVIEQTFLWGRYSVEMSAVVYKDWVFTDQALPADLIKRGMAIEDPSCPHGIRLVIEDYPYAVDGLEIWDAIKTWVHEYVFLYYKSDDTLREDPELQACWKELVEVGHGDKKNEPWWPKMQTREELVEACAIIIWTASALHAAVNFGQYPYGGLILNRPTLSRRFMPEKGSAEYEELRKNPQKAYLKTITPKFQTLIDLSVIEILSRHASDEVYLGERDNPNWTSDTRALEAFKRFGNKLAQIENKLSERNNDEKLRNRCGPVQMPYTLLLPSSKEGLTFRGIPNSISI
Description: The anti-inflammatory effect of the synthesized compounds was initially evaluated in vitro, via their ability to inhibit soybean lipoxygenase (LOX-3).
Lipoxygenase activity was determined using soybean lipoxygenase (250 U/mL) and sodium linoleate (100 μM) as substrate, in Tris–HCl buffer pH 9.0. The test compounds dissolved in methanol were added and the reaction was monitored for 5 min at 28 °C, recording absorbance at 234 nm.

[5] = test system: carrageenan-induced mouse paw edema; conditions: cited from earlier work
[6] = test system: experimentally induced hyperlipidemic mouse model; experiment: Tyloxapol (Triton WR 1339)-induced hyperlipidemia; assay type: in vivo, mice; conditions: 84 μmol/kg i.p.; 24 h after tyloxapol
Description: Acute hyperlipidemia was achieved, i.p., by the administration of tyloxapol (Triton WR 1339). The antihyperlipidemic effect of the tested compounds was evaluated as the decrease in total cholesterol (TC) and triglyceride (TG) levels in plasma 24 h after tyloxapol administration. The results are shown in Figure 4A,B. Compounds 9 and 10 reduced TC levels in plasma by 73% and 50%, respectively, and TG levels by 76% and 41%, respectively.
An aqueous solution of Triton WR 1339 was given, i.p., to mice (400 mg/kg of body weight) and one hour later the test compounds (84 μmol/kg of body weight), dissolved in saline or saline only were administered, i.p. After 24 h, blood was taken from the aorta/heart and used for the determination of plasma total cholesterol (TC) and triglyceride (TG) levels, using commercially available kits. Levels of plasma lipids were determined in duplicate while the values presented were the mean from eight animals (per compound).

[7] = test system: rat/mouse microsomal lipid peroxidation; parameters: method as in doi:10.1002/(SICI)1098-2299(199905)47:1<9::AID-DDR2>3.0.CO; conditions: after 45 min of incubation; read-out: IC50 against microsomal lipid peroxidation; cited from earlier work
[8] = after 5 min of incubation, sodium linoleate 100 μM, pH 9.0, read-out: IC50 Value on LOX-3

Structure (SMILES)	inhibition in vivo at 300 µmol/kg [1]	IC50 [2]	IC50 [3]	LOX-3 inhibitory activity (in words) [4]	further results
CC(C)(C)c1cc(C(=O)O)cc(C(C)(C)C)c1O [BHB, 3,5-di-tert-butyl-4-hydroxybenzoic acid, reference compound]	53%	31 µM	257 µM	little or no inhibitory activity	–
CC(C)(C)c1cc(CO)cc(C(C)(C)C)c1O [BHBA, 3,5-di-tert-butyl-4-hydroxybenzyl alcohol, reference compound]	71%	160 µM	10 µM	little or no inhibitory activity	–
COc1ccc2cc(C(C)C(=O)OCc3cc(C(C)(C)C)c(O)c(C(C)(C)C)c3)ccc2c1 (stereo not drawn) [Compound 3, 3,5-di-tert-butyl-4-hydroxybenzyl 2-(6-methoxynaphthalen-2-yl)propanoate]	–	–	–	–	melting point: 85 to 86 °C; % Edema Reduction ([5]; 0.15 mmol/kg i.p.): 78**^a [11] %; IC50 [4, 8]: 41 µM
Cc1cccc(Nc2ccccc2C(=O)OCc2cc(C(C)(C)C)c(O)c(C(C)(C)C)c2)c1C [Compound 9, 3,5-di-tert-butyl-4-hydroxybenzyl 2-((2,3-dimethylphenyl)amino)benzoate]	63%	–	5 µM	–	improvement in edema reduction ([1]; compared to parent mefenamic acid (i)): 1.5–2 fold; reduction of total cholesterol (TC) levels in plasma [6]: 73%; reduction of triglyceride (TG) levels in plasma [6]: 76%; IC50 [4, 8]: 108 µM
Cc1c(C)c2c(c(C)c1O)CCC(C)(C(=O)O)O2 (stereo not drawn) [Trolox, 6-hydroxy-2,5,7,8-tetramethylchromane-2-carboxylic acid, reference compound]	46%	33 µM	25 µM	little or no inhibitory activity	–
COc1ccc2cc([C@H](C)C(=O)O)ccc2c1 [c, Naproxen, reference compound]	–	–	–	–	% Edema Reduction ([5]; 0.30 mmol/kg i.p.): 51** [11] %; IC50 [4]: 25 µM
Cc1c(Cl)cccc1Nc1ccccc1C(=O)O [e, Tolfenamic acid]	–	–	–	–	% Edema Reduction ([5]; 0.30 mmol/kg i.p.): 60*** [5] %; IC50 [7]: 250 µM
Cc1cccc(Nc2ccccc2C(=O)O)c1C [i, Mefenamic acid, reference compound]	35%	–	–	–	IC50 [7]: 130 µM

Source: article PMC8399014, “Design of Multifaceted Antioxidants: Shifting towards Anti-Inflammatory and Antihyperlipidemic Activity” (Molecules, 2021)
